Reference: ChEMBL document CHEMBL4371025, “Discovery and evaluation of novel FAAH inhibitors in neuropathic pain model” (Bioorg Med Chem Lett, 2019)

Tests used:
CYP1A2 = assay: Selectivity ratio of IC50 for CYP1A2 in human liver microsomes to IC50 for rat FFAH expressed in Escherichia coli; assay type: toxicity; conditions: read-out: Ratio IC50
[1] = Drug uptake in Sprague-Dawley rat brain at 3 mg/kg, iv or 10 mg/kg, po administered as single dose via gavage by LC-MS/MS analysis; assay type: ADME, organism-based; conditions: in vivo
Monoglyceride lipase = target: T1, Monoglyceride lipase (Homo sapiens, UniProt Q99685); assay: Inhibition of MAGL (unknown origin) up to 10 uM
T1 sequence (Q99685 whole entry): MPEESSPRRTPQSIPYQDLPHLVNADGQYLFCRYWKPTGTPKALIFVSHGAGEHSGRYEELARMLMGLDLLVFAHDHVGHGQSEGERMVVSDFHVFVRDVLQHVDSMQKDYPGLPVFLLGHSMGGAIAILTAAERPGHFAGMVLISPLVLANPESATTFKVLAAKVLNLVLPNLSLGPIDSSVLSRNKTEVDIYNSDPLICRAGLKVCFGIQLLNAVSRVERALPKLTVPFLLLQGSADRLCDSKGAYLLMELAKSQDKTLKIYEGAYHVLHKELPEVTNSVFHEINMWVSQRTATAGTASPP

CYP3A4 [2] = assay: Selectivity ratio of IC50 for CYP3A4 in human liver microsomes using midazolam as substrate to IC50 for human transmembrane domain deficient FFAH expressed in Escherichia coli; assay type: toxicity; conditions: probe midazolam, read-out: Ratio IC50
CYP2C9 = assay: Selectivity ratio of IC50 for CYP2C9 in human liver microsomes to IC50 for human transmembrane domain deficient FFAH expressed in Escherichia coli; assay type: toxicity; conditions: read-out: Ratio IC50
CYP3A4 [3] = assay: Selectivity ratio of IC50 for CYP3A4 in human liver microsomes using testosterone as substrate to IC50 for rat FFAH expressed in Escherichia coli; assay type: toxicity; conditions: probe testosterone, read-out: Ratio IC50
[4] = Drug level in plasma of Sprague-Dawley rat at 10 mg/kg, po administered as single dose via gavage measured at 12 hrs by LC-MS/MS analysis; assay type: ADME, organism-based
[5] = Drug level in liver of Sprague-Dawley rat at 10 mg/kg, po administered as single dose via gavage measured at 12 hrs by LC-MS/MS analysis; assay type: ADME, organism-based; conditions: read-out: Drug uptake
[6] = Drug level in brain of Sprague-Dawley rat at 10 mg/kg, po administered as single dose via gavage measured at 12 hrs by LC-MS/MS analysis; assay type: ADME, organism-based; conditions: read-out: Drug uptake

Structure (SMILES) | selectivity ratio (CYP1A2) | Drug uptake [1] [%] | inhibition (INH) (Monoglyceride lipase) | selectivity ratio (CYP3A4 [2]) | selectivity ratio (CYP2C9) | selectivity ratio (CYP3A4 [3]) | concentration at 12 h [4] [µM] | concentration at 12 h [5] [µM] | concentration at 12 h [6] [µM]
Nc1ncc(C(=O)N[C@H]2CC/C(=C\c3cccc(Oc4ccc(C(F)(F)F)cn4)c3)CC2)cn1 (stereo not given) | > 5000 | 50 to 80 | Not Active | > 5000 | > 5000 | > 5000 | – | – | –
O=C(N[C@H]1CC/C(=C\c2cccc(Oc3ccc(C(F)(F)F)cn3)c2)CC1)c1cccnc1 (stereo not given) | – | – | – | – | – | – | 1.9 | 21 | 3.6
Cc1cc(C(=O)N[C@H]2CC/C(=C\c3cccc(Oc4ccc(C(F)(F)F)cn4)c3)CC2)cnc1N (stereo not given) | > 5000 | 50 to 80 | Not Active | > 5000 | > 5000 | > 5000 | – | – | –
